In US20100173968A1, “SUB-TYPE SELECTIVE AZABICYCLOALKANE DERIVATIVES” (TARGACEPT, INC., priority 2007, published 2010):
Where two headings read alike, the source gives them in different places.

How the values were obtained:
[1] = molecular target: α4β2 nAChR Subtype (Rattus norvegicus, UniProt P09483+P12390); assay: Radioligand binding at α4β2 nAChR subtype, inhibition of [3H]nicotine binding, rat cerebral cortex membranes; details: [3H]nicotine 5 nM
Method: The [^3H]nicotine (Specific Activity=81.5 Ci/mmol) was obtained from NEN Research Products. The binding of [^3H]nicotine was measured using a 3 h incubation at 4° C. […] Each filter was washed with ice-cold buffer (3×1 mL).
Each concentration was replicated in triplicate.

[2] = molecular target: Human α4β2 (Homo sapiens, UniProt P17787+P43681); assay: Binding at human α4β2 (Ki); method not described
[3] = NOR (novel object recognition) task; type: in vivo; details: orally, in rats
Method: Certain exemplified compounds were assessed in the NOR (novel object recognition) task. This illustrates efficacy and potency of the compounds of the present invention in treating cognitive deficits, attention disorders, and dementias, and the potential of these compounds for human therapy.

[4] = molecular target: α7 nAChR Subtype (Rattus norvegicus, UniProt Q05941); assay: Radioligand binding at α7 nAChR subtype, inhibition of [3H]MLA binding, rat hippocampus membranes (HTS at 5 μM, then Ki); details: for inhibition at 5 µM: read-out: α7 HTS outcome (α7 Ki)
[5] = read-out: α7 Ki, [3H]MLA 5 nM, rat hippocampus

Human α4β2, sequence (P43681 29-627 limits assumed): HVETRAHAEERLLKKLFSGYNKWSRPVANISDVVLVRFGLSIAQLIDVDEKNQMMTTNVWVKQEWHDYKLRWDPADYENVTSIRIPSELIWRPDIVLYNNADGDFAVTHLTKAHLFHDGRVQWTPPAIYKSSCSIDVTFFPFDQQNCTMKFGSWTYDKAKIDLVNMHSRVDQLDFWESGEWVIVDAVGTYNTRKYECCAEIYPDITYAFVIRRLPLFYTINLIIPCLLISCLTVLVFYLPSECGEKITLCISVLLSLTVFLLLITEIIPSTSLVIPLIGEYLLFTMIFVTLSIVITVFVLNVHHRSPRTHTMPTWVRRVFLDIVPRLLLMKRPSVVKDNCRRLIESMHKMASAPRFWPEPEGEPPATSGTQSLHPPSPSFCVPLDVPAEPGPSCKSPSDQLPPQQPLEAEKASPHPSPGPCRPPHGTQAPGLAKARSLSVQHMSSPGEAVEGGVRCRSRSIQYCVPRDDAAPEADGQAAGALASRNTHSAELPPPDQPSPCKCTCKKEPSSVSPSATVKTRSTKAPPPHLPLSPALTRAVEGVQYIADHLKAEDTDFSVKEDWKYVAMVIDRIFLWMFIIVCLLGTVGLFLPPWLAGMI
Human α4β2, sequence (P17787 26-502): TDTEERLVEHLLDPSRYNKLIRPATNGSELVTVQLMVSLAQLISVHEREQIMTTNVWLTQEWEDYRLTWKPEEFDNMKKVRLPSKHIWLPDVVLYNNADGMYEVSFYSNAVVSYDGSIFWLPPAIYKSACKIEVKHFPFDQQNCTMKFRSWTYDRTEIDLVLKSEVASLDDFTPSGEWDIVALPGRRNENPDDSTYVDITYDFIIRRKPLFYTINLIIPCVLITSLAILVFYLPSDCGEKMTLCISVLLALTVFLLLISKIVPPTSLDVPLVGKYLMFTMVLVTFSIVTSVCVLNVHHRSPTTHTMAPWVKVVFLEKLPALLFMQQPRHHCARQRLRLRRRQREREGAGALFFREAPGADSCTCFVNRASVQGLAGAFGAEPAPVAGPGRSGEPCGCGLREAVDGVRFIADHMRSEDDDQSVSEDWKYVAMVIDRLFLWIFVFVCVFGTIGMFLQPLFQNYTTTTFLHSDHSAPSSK
α4β2 nAChR Subtype, sequence (P09483 31-630): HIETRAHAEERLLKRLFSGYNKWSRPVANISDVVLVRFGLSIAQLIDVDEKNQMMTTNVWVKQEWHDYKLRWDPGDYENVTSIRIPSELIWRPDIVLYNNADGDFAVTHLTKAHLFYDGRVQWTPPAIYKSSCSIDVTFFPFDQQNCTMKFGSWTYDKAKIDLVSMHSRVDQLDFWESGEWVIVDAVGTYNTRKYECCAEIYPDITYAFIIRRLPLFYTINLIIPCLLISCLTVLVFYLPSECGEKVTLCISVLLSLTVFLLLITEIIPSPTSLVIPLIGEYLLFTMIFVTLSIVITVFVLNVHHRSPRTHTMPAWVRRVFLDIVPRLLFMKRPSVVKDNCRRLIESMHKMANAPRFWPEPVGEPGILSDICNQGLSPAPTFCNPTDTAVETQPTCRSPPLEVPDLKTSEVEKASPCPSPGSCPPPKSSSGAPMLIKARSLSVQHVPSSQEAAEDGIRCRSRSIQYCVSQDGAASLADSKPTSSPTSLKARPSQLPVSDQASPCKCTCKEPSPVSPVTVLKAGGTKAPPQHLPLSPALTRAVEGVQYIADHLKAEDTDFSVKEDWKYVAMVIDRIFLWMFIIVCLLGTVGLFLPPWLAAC
α4β2 nAChR Subtype, sequence (P12390 25-500): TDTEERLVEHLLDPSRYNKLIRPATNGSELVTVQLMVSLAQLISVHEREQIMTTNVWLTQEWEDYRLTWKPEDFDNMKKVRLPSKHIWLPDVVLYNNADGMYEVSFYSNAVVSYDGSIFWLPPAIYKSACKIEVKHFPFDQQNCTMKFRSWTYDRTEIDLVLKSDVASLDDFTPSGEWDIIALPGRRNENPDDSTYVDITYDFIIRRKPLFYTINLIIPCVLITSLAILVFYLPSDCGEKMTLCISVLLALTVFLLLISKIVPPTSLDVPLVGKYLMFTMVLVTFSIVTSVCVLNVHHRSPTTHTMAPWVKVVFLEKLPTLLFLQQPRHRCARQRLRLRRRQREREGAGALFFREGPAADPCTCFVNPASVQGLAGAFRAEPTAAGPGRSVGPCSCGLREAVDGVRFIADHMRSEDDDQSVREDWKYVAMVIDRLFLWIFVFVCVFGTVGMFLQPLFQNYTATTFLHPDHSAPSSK
α7 nAChR Subtype, sequence (Q05941 23-502): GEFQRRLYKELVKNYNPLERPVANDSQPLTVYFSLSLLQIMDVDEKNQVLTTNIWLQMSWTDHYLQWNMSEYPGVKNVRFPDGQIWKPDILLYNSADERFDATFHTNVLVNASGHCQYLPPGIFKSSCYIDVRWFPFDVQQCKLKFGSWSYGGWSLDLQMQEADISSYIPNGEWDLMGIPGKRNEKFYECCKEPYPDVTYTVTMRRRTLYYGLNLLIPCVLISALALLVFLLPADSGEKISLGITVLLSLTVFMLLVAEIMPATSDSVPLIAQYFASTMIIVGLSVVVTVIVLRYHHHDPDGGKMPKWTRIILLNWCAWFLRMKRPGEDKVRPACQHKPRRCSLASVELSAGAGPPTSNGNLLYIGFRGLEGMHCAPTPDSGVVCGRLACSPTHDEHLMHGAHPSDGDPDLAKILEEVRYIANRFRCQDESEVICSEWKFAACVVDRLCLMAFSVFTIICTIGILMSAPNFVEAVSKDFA

| Compound | Ki ([1]; read-out: Rat α4β2 Ki) [nM] | Ki [2] [nM] | activity in the NOR task (recognition index) ([3]; dose of 1 mg/kg, FIG. 2) | Ki [4] [nM] | activity in the NOR task (recognition index) ([3]; dose of 0.1 mg/kg, FIG. 1) | Ki ([1]; Rat α4β2 Ki) [nM] | inhibition at 5 µM [4] [%] | Ki [4, 5] [nM] |
| --- | --- | --- | --- | --- | --- | --- | --- | --- |
| CNC(=O)C1CC2CNCC(C2)C1 (centres unmarked) [Compound B, N-methyl-3-azabicyclo[3.3.1]nonane-7-carboxamide] | 6 | 2 | active | > 10000 |  |  |  |  |
| COC(=O)C1C[C@H]2CNC[C@H]2C1 (mixture of isomers) [Compound A, methyl 3-azabicyclo[3.3.0]octane-7-carboxylate] | 20 | 8 |  | > 10000 | active |  |  |  |
| O=C(c1ccco1)[C@@H]1C[C@H]2CNC[C@H]2C1 [trans-2-furanyl(3-azabicyclo[3.3.0]oct-7-yl)methanone] |  | 226 |  |  |  | 463 | < 50 |  |
| NC(=O)C1C[C@H]2CNC[C@H]2C1 (mixture of isomers) [3-azabicyclo[3.3.0]octane-7-carboxamide] | 394 | 320 |  | 8280 |  |  |  |  |
| O=C(C1CCCCC1)C1C[C@H]2CNC[C@H]2C1 (mixture of isomers) [cyclohexyl(3-azabicyclo[3.3.0]oct-7-yl)methanone] | 192 | 44.2 |  |  |  |  | < 50 |  |
| CN(C)C(=O)[C@@H]1C[C@H]2CNC[C@H]2C1 [trans-N,N-dimethyl-3-azabicyclo[3.3.0]octane-7-carboxamide] |  | 114 |  |  |  | 28.7 | < 50 |  |
| CC(C)OC(=O)C1C[C@H]2CNC[C@H]2C1 (mixture of isomers) [isopropyl 3-azabicyclo[3.3.0]octane-7-carboxylate] | 103 | 7.8 |  | > 10000 |  |  |  |  |
| COCCNC(=O)C1CC2CNCC(C2)C1 (centres unmarked) [N-(2-methoxyethyl)-3-azabicyclo[3.3.1]nonane-7-carboxamide] | 457 | 774 |  |  |  |  | < 50 |  |
| O=C(C1CC2CNCC(C2)C1)N1CCOCC1 (centres unmarked) [4-morpholinyl(3-azabicyclo[3.3.1]non-7-yl)methanone] | 62.5 | 22.5 |  |  |  |  | < 50 |  |
| O=C(NCc1ccccc1)C1CC2CNCC(C2)C1 (centres unmarked) [N-benzyl-3-azabicyclo[3.3.1]nonane-7-carboxamide] | 885 | 9 |  |  |  |  | < 50 |  |
| O=C(NC1CC=CC1)C1CC2CNCC(C2)C1 (centres unmarked) [N-(3-cyclopentenyl)-3-azabicyclo[3.3.1]nonane-7-carboxamide] | 45.3 | 24.3 |  |  |  |  | < 50 |  |
| O=C(c1occc1Br)C1C[C@H]2CNC[C@H]2C1 (mixture of isomers) [3-bromofuran-2-yl(3-azabicyclo[3.3.0]oct-7-yl)methanone] | 2.8 | 0.9 |  |  |  |  | < 50 |  |
| O=C(Nc1ccccc1F)C1CC2CNCC(C2)C1 (centres unmarked) [N-(2-fluorophenyl)-3-azabicyclo[3.3.1]nonane-7-carboxamide] | 63 | 24.1 |  |  |  |  | < 50 |  |
| O=C(C1CCCC1)C1C[C@H]2CNC[C@H]2C1 (mixture of isomers) [cyclopentyl(3-azabicyclo[3.3.0]oct-7-yl)methanone] | 15.9 | 7.5 |  |  |  |  | < 50 |  |
| CC(=O)C1C[C@H]2CNC[C@H]2C1 (mixture of isomers) [1-(3-azabicyclo[3.3.0]oct-7-yl)-1-ethanone] | 7.3 | 10.7 |  |  |  |  |  | > 10000 |
| O=C(NC1CCC1)C1CC2CNCC(C2)C1 (centres unmarked) [N-(cyclobutyl)-3-azabicyclo[3.3.1]nonane-7-carboxamide] | 135 | 308 |  |  |  |  | < 50 |  |
| CC(C)C(=O)C1C[C@H]2CNC[C@H]2C1 (mixture of isomers) [1-(3-azabicyclo[3.3.0]oct-7-yl)-2-methyl-1-propanone] |  | 0.2 |  | 2380 |  | 0.3 |  |  |
| CCOC(=O)C1C[C@H]2CNC[C@H]2C1 (mixture of isomers) [ethyl 3-azabicyclo[3.3.0]octane-7-carboxylate] | 45.8 | 17.5 |  |  |  |  | < 50 |  |

| Compound | Ki ([1]; read-out: Rat α4β2 Ki) [nM] | Ki [2] [nM] | activity in the NOR task (recognition index) ([3]; dose of 1 mg/kg, FIG. 2) | Ki [4] [nM] | activity in the NOR task (recognition index) ([3]; dose of 0.1 mg/kg, FIG. 1) | Ki ([1]; Rat α4β2 Ki) [nM] | inhibition at 5 µM [4] [%] | Ki [4, 5] [nM] |
| --- | --- | --- | --- | --- | --- | --- | --- | --- |
| O=C(OC1CC=CC1)C1C[C@H]2CNC[C@H]2C1 (mixture of isomers) [cyclopent-3-en-1-yl 3-azabicyclo[3.3.0]octane-7-carboxylate] | 59.3 | 22.5 |  |  |  |  |  | > 10000 |
| O=C(C1C[C@H]2CNC[C@H]2C1)N1CCC[C@@H]1CO (mixture of isomers) [(R)-(2-(hydroxymethyl)-1-pyrrolidinyl)(3-azabicyclo[3.3.0]oct-7-yl)methanone] | 387 | 255 |  |  |  |  | < 50 |  |
| CC1COCC(C)N1C(=O)C1C[C@H]2CNC[C@H]2C1 (some centres unmarked) [(3-azabicyclo[3.3.0]oct-7-yl)(2,6-dimethylmorpholin-1-yl)methanone] | 57.5 | 71.1 |  |  |  |  | < 50 |  |
| CCCNC(=O)C1CC2CNCC(C2)C1 (centres unmarked) [N-propyl-3-azabicyclo[3.3.1]nonane-7-carboxamide] | 21.4 | 10.4 |  |  |  |  | < 50 |  |
| O=C(OC1CCOC1)C1C[C@H]2CNC[C@H]2C1 (some centres unmarked) [tetrahydrofuran-3-yl 3-azabicyolo[3.3.0]octane-7-carboxylate] | 129 | 120 |  | > 10000 |  |  |  |  |
| O=C(NC1CC1)C1CC2CNCC(C2)C1 (centres unmarked) [N-cyclopropyl-3-azabicyclo[3.3.1]nonane-7-carboxamide] | 707 | 15.6 |  |  |  |  | < 50 |  |
| CCC(C)NC(=O)C1CC2CNCC(C2)C1 (centres unmarked) [N-sec-butyl-3-azabicyclo[3.3.1]nonane-7-carboxamide] | 272 | 42.8 |  |  |  |  |  | > 10000 |
| CN(C)C(=O)C1CC2CNCC(C2)C1 (centres unmarked) [N,N-dimethyl-3-azabicyclo[3.3.1]nonane-7-carboxamide] |  | 54 |  | > 10000 |  | 78 |  |  |
| O=C(C1C[C@H]2CNC[C@H]2C1)N1CCC[C@H]1CO (mixture of isomers) [(S)-(2-(hydroxymethyl)-1-pyrrolidinyl)(3-azabicyclo[3.3.0]oct-7-yl)methanone] | 537 | 271 |  |  |  |  | < 50 |  |
| O=C(NCC1CC1)C1CC2CNCC(C2)C1 (centres unmarked) [N-(cyclopropylmethyl)-3-azabicyclo[3.3.1]nonane-7-carboxamide] | 69.1 | 92.2 |  |  |  |  | < 50 |  |
| O=C(OCc1ccoc1)C1C[C@H]2CNC[C@H]2C1 (mixture of isomers) [(furan-3-yl)methyl 3-azabicyclo[3.3.0]octane-7-carboxylate] | 19.6 | 16.3 |  |  |  |  | < 50 |  |
| O=C(OCCF)C1C[C@H]2CNC[C@H]2C1 (mixture of isomers) [2-fluoroethyl 3-azabicyclo[3.3.0]octane-7-carboxylate] | 55.1 | 102 |  |  |  |  | < 50 |  |
| CN(C)C(=O)C1=C[C@@H]2CNC[C@@H]2C1 [N,N-dimethyl-3-azabicyclo[3.3.0]oct-6-ene-7-carboxamide] |  | 164 |  | > 10000 |  | 60 |  |  |
| O=C(NCC(F)(F)F)C1CC2CNCC(C2)C1 (centres unmarked) [N-(2,2,2-trifiuoroethyl)-3-azabicyclo[3.3.1]nonane-7-carboxamide] | 40.8 | 22.8 |  |  |  |  |  | > 10000 |
| O=C(c1ccncc1)C1C[C@H]2CNC[C@H]2C1 (mixture of isomers) [pyridin-4-yl(3-azabicyclo[3.3.0]oct-7-yl)methanone] | 43 | 36.4 |  |  |  |  | < 50 |  |
| O=C(C1C[C@H]2CNC[C@H]2C1)N1CCCCO1 (mixture of isomers) [(3-azabicyclo[3.3.0]oct-7-yl)(1-oxazinan-2-yl)methanone] | 17.4 | 5.5 |  |  |  |  |  | ≥ 10000 |
| CC(C)CC(=O)C1C[C@H]2CNC[C@H]2C1 (mixture of isomers) [1-(3-azabicyclo[3.3.0]oct-7-yl)-3-methyl-1-butanone] | 27.3 | 4.6 |  |  |  |  | < 50 |  |
